Patent US11465978B2, “Anthranilic amides and the use thereof” (THE ADMINISTRATORS OF THE TULANE EDUCATIONAL FUND, priority 2013, dated 2022)
Where a name gives a salt, the structure may show the parent alone.

Columns and labels:
pERK1/2 = assay: Western blot, inhibition of EGF-mediated formation of pERK1/2 in MDA-MB-231 cells; assay type: cell-based; conditions: for pERK-½ decrease (%) / pERK-½ relative activity (%): Example 3 table, MDA-MB-231, EGF stimulation; for pERK-½ decrease (%): DMSO = 0; for inhibition at 10 µM: Homo sapiens, MDA-MB-231, Table 1, MDA-MB-231, compounds 10 μM 30 min, then EGF 50 ng/mL 15 min, read-out: cellular pERK1/2 decrease (%); for cellular pERK1/2 activation (printed in the decrease column): Table 1, cell marked 'activation'; for pERK-½ relative activity (%): DMSO = 100
Description: (§1) FIG. 9 is a set of bar graphs showing a Western blot analysis of potential MEK5 inhibitors. The MDA-MB-231 triple negative breast cancer cell line was pretreated with compounds (10 μM) for 30 minutes followed by stimulation with epidermal growth factor (EGF, 50 ng/mL) for 15 minutes. Vehicle-treated cells were pretreated with DMSO for 30 minutes prior to EGF stimulation for 15 minutes. Protein visualization and quantification analysis were performed using LI-COR Odyssey Imager. * P<0.05 vs. Vehicle, one-way ANOVA followed by Tukey-Kramer test (n=3).
(§2) A number of compounds were tested for their potential as MEK5 inhibitors. The MDA-MB-231 triple negative breast cancer cell line was pretreated with 10 μM of compounds 24, 9b, 9a, 9c, 9e, 9f, 9d, 9h, 23, 7, and 15 for 30 minutes followed by stimulation with epidermal growth factor (EGF, 50 ng/mL) for 15 minutes. Vehicle-treated cells and known MEK1/2 inhibitor cells were pretreated with DMSO and U0126 respectively for 30 minutes prior to EGF stimulation for 15 minutes. Protein visualization and quantification analysis was performed using LI-COR Odyssey Imager. The results of the Western blot analysis are shown in FIG. 9. * P<0.05 vs. Vehicle, one-way ANOVA followed by Tukey-Kramer test (n=3).
(§3) MDA-MB-231 cells were grown on 10 cm cell culture plates [Sarstedt] in Dulbecco's Modified Eagle's Medium (DMEM; Gibco) with Ham's F12 Nutrient Mixture (1:1) (Invitrogen), 10% heat-inactivated FBS [Atlanta Biological and 0.5% penicillin/streptomycin [Gibco]. Cells were maintained at 37° C. with 5% CO2. Plating of the cells was done 36 hours before treatment in 35 mm culture plates [Sarstedt] and allowed to reach confluence. To test MEK-5 inhibitors, the cells were treated with epidermal growth factor (EGF; Sigma-Aldrich) 30 min after treatment with the compounds. 15 min after the addition of EGF, the cells were washed with 1×PBS [Sigma-Aldrich] and then lysed in 1% Triton X-100 buffer containing 20 mM Tris (pH 6.8), 137 mM NaCl, 25 mM beta glycerophosphate, 2 mM NaPPi, 2 mM EDTA, 1 mM Na3VO4, 10% glycerol, 5 μg/mL leupeptin, 5 μg/mL aprotinin, 2 mM benzamidine, 0.5 mM DTT, and 1 mM PMSF. The lysates were then centrifuged at 10,000 rpm for 10 min at 4° C.
(§4) Total protein content was assessed by Bradford Bio-Rad protein assay (Cat. No. 500-0006, Bio-Rad, Hercules, Calif.) and 30 μg of protein was loaded on a 8% SDS-PAGE gel for phosphorylated and total ERK1/2 and ERK5 proteins. After running the samples, gels were transferred to a nitrocellulose membrane (Cat. No. 926-31092, Licor Biosciences, Lincoln, Nebr.). After transfer, membranes were washed for 5 min with 1×PBS and blocked for 1 h in a Casein Blocking Buffer (Cat. No. 927-40200, Licor Biosciences) at room temperature. Membranes were then incubated overnight at 4° C. in primary antibody in CBB with 0.2% Tween-20. Antibodies included rabbit anti-phospho-ERK1/2 (Dilution—1:1000, Cat. No. 9101, Cell Signaling, Beverly, Mass.), mouse anti-total ERK1/2 (Dilution—1:1000, Cat. No. 9107, Cell Signaling), and rabbit anti-total ERK5 (Dilution—1:1,000, Cat. No. 3372, Cell Signaling). Mouse anti-α-Tubulin (Dilution—1:10,000, Cat. No. T5168, Sigma-Aldrich) was used as a loading control. After incubation with primary antibody, blots were washed in 1×PBS solution with 0.2% Tween-20 (1×PBS-T) and incubated with goat anti-rabbit (Dilution—1:10,000, Cat. No. 926-68021, LICOR Biosciences) and goat anti-mouse (Dilution—1:10,000, Cat. No. 926-32210, LICOR Biosciences) secondary antibodies for 1 h at room temperature. After washing the membranes with 1×PBS-T, the protein bands were visualized on an Odyssey Infrared Imager and quantified with Odyssey software (LICOR Biosciences).

pERK5 = assay: Western blot, inhibition of EGF-mediated formation of pERK5 in MDA-MB-231 cells; assay type: cell-based; conditions: for pERK-5 decrease (%) / pERK-5 relative activity (%): Example 3 table, MDA-MB-231, EGF stimulation; for pERK-5 decrease (%): DMSO = 0; for inhibition at 10 µM: Homo sapiens, MDA-MB-231, Table 1, MDA-MB-231, compounds 10 μM 30 min, then EGF 50 ng/mL 15 min, read-out: cellular pERK5 decrease (%); for pERK-5 relative activity (%): DMSO = 100; for cellular pERK5 activation (printed in the decrease column): Table 1, cell marked 'activation'
Description: as §1, §2, §3, §4

Row | SMILES | pERK-½ decrease (%) (pERK1/2) | inhibition at 10 µM (pERK1/2) | pERK-5 decrease (%) (pERK5) | inhibition at 10 µM (pERK5) | other results
1 | CN1CCN(C(=O)c2ccccc2Nc2ccccc2)CC1 [Compound 23, (4-methylpiperazin-1-yl)(2-(phenylamino)phenyl)methanone] | 29.3% | 29.6% | 71% | – | cellular pERK1/2 activation (printed in the decrease column) (pERK1/2): +5.5%
2 | O=C(O)c1ccc(F)c(F)c1Nc1ccccc1F [Compound 13, 3,4-difluoro-2-((2-fluorophenyl)amino)benzoic acid] | – | – | 11.1% | – | pERK-½ relative activity (%) (pERK1/2): 7.1%
3 | CN1CCN(C(=O)c2ccc(F)c(F)c2Nc2ccccc2F)CC1.O=C(O)/C=C/C(=O)O [SC-2-45, (3,4-difluoro-2-((2-fluorophenyl)amino)phenyl)(4-methylpiperazin-1-yl)methanone mono-fumarate] | 16.5% | – | 40.5% | – | –
4 | CN1CCN(C(=O)c2ccc(F)c(F)c2Nc2ccc(I)cc2F)CC1 [IC-D-122b] | – | 39% | – | 33% | –
5 | O=C(c1ccc(F)c(F)c1Nc1ccc(I)cc1F)N1CCNCC1 [Compound 9f, (3,4-difluoro-2-((2-fluoro-4-iodophenyl)amino)phenyl)(piperazin-1-yl)methanone hydrochloride] | 99.0% | 99% | – | – | pERK-5 relative activity (%) (pERK5): 6.2%; cellular pERK5 activation (printed in the decrease column) (pERK5): activation (+4.4) %
6 | CCN(CC)C(=O)c1ccc(F)c(F)c1Nc1ccc(I)cc1F [Compound 9b, N,N-diethyl-3,4-difluoro-2-((2-fluoro-4-iodophenyl)amino)benzamide] | 5.5% | 5.5% | – | – | pERK-5 relative activity (%) (pERK5): 7.4%; cellular pERK5 activation (printed in the decrease column) (pERK5): activation (−7.4) %
7 | O=C(N[C@H](CO)C(=O)O)c1ccc(F)c(F)c1Nc1ccc(I)cc1F [IC-3-117] | – | 80.8% | – | 127% | –
8 | O=C(c1ccc(F)c(F)c1Nc1ccc(I)cc1F)N1CCOCC1 [IC-3-93] | – | 47.8% | – | 76.3% | –
9 | CCNC(=O)c1ccc(F)c(F)c1Nc1ccc(I)cc1F [Compound 9d, N-ethyl-3,4-difluoro-2-((2-fluoro-4-iodophenyl)amino)benzamide] | 98.6% | 98.6% | 8.5% | 8.5% | –
10 | O=C(NCCO)c1ccc(F)c(F)c1Nc1ccc(I)cc1F [IC-3-102] | – | -31.1% | – | 47.9% | –
11 | CN1CCN(C(=O)c2ccc(F)c(F)c2Nc2ccccc2)CC1 [Compound 15] | – | – | 82.4% | 82.4% | pERK-½ relative activity (%) (pERK1/2): 8.5%; cellular pERK1/2 activation (printed in the decrease column) (pERK1/2): activation (+8.5) %
12 | CNC(=O)c1ccc(F)c(F)c1Nc1ccc(I)cc1F [Compound 9c, 3,4-difluoro-2-((2-fluoro-4-iodophenyl)amino)-N-methylbenzamide] | 99.6% | 99.6% | 20.4% | 20.4% | –
13 | O=C(c1ccc(F)c(F)c1Nc1ccc(I)cc1F)N1CCCCC1 [IC-3-97] | – | 42.4% | – | 87.1% | –
14 | COC(=O)c1ccc(F)c(F)c1Nc1ccc(I)cc1F [Compound 9e, Methyl 3,4-difluoro-2-((2-fluoro-4-iodophenyl)amino)benzoate] | 98.9% | 98.9% | 13.0% | 13% | –
15 | N#CC(=C(/N)Sc1ccccc1N)/C(C#N)=C(\N)Sc1ccccc1N [Compound U0126, reference compound] | 99.6% | – | 43% | – | –
16 | CC(C)(C)OC(=O)N1CCN(C(=O)c2ccc(F)c(F)c2Nc2ccc(I)cc2F)CC1 [Compound 9g, Tert-butyl 4-(3,4-difluoro-2-((2-fluoro-4-iodophenyl)amino)benzoyl)piperazine-1-carboxylate] | 70.9% | 70.9% | 8.4% | 8.4% | –
17 | O=C(O)c1ccc(F)c(F)c1Nc1ccccc1 [Compound 12, 3,4-difluoro-2-(phenylamino)benzoic acid] | 7.1% | – | 10.4% | – | –
18 | CCOc1cc(N2CCC(O)CC2)ccc1Nc1ncc2c(n1)N(C)c1ccccc1C(=O)N2C [XMD8-92, reference compound] | 50.1% | – | 95.2% | – | –
19 | O=C(NOC[C@H](O)CO)c1ccc(F)c(F)c1Nc1ccc(I)cc1F [PD 0325901, reference compound] | 99.7% | – | 95.9% | – | –
20 | O=C(N[C@@H](CO)C(=O)O)c1ccc(F)c(F)c1Nc1ccc(I)cc1F [IC-3-111] | – | 85% | – | – | –
21 | CN(C)CCN(C)C(=O)c1ccc(F)c(F)c1Nc1ccc(I)cc1F [Compound 9h, N-(2-(dimethylamino)ethyl)-3,4-difluoro-2-((2-fluoro-4-iodophenyl)amino)-N-methylbenzamide hydrochloride] | 27.9% | 28.2% | 9.4% | 9% | –
22 | O=C(O)c1ccc(F)c(F)c1Nc1ccc(I)cc1F [Compound 7, 3,4-difluoro-2-((2-fluoro-4-iodophenyl)amino)benzoic acid] | 98.5% | 98.5% | 20.1% | 20.1% | –
23 | CN(C)C(=O)c1ccc(F)c(F)c1Nc1ccc(I)cc1F [Compound 9a, 3,4-difluoro-2-((2-fluoro-4-iodophenyl)amino)-N,N-dimethylbenzamide] | 87.3% | 87.3% | 0.2% | 0.2% | –
24 | CN1CCN(C(=O)c2ccccc2Nc2ccc(I)cc2F)CC1 [Compound 24, (2-((2-fluoro-4-iodophenyl)amino)phenyl)(4-methylpiperazin-1-yl)methanone hydrochloride] | 33.5% | 33.5% | 30.9% | 20.9% | –
25 | NC(=O)c1ccc(F)c(F)c1Nc1ccccc1F [SC-2-37, 3,4-difluoro-2-((2-fluorophenyl)amino)benzamide] | 52.8% | – | 56.1% | – | melting point: 157.6 to 161.2 °C
26 | CN(c1ccc(I)cc1F)c1c(C(=O)O)ccc(F)c1F [SC-2-32, 3,4-difluoro-2-((2-fluoro-4-iodophenyl)(methyl)amino)benzoic acid] | 33.5% | – | – | – | pERK-5 relative activity (%) (pERK5): 5.5%
